What was measured:
LTD4 receptor = target: T1, LTD4 receptor (Cavia porcellus, UniProt Q2NNR5); test: receptor binding: competition with [^3 H]LTD4 on guinea-pig lung membranes; conditions: negative logarithm of molar concentration inhibiting binding by 50%, read-out: pIC50 value ([^3 H]LTD4 binding) (converted)
T1 construct: from tissue; host or cells: guinea-pig lung membranes
T1 sequence (Q2NNR5 1-340): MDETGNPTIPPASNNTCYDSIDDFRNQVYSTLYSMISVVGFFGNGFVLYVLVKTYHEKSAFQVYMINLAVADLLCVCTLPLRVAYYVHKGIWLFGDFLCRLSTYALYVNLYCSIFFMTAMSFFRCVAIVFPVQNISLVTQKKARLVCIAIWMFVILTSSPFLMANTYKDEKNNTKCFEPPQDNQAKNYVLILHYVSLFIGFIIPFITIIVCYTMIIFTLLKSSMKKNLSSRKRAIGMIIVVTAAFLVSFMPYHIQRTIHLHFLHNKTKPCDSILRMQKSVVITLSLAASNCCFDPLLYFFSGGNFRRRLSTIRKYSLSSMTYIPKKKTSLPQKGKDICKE
Text: It is of importance to investigate the receptor binding properties of leukotriene antagonists in relation to their pKB values (13), i.e. to correlate antagonist receptor blocking with inhibition of smooth muscle contraction. Receptor binding studies may be performed with guinea-pig lung membranes in a direct competition assay between a leukotriene antagonist and [^3 H]LTD4 for binding to the LTD4 receptor (10,13).

[1] = target: T2, guinea-pig tracheal strips (LTD4 concentration-response) (Cavia porcellus, UniProt Q2NNR5); test: LTD4 antagonism in guinea-pig tracheal strips (pKB); conditions: for Kb: Pharmacological Data table; for pKB value: guinea-pig tracheal strips, negative logarithm of the antagonist dissociation constant
T2 construct: from tissue; host or cells: guinea-pig tracheal strips
T2 sequence (Q2NNR5 1-340): T1 sequence (Q2NNR5 1-340)
Text: Leukotrine antagonists may be further characterized using guinea-pig tracheal strips instead of ileum strips (10). In this relevant in vitro model of human airways (11) tracheal strips are suspended in a physiological buffer containing indomethacin. A concentration-response curve to LTD4 is generated in the presence and absence of the leukotriene antagonist. From these curves the potency of a leukotriene antagonist may be expressed as the pKB value, the negative logarithm of the antagonist dissociation constant. The pKB value is determined as -log ([antagonist]/(dose ratio -1)), where the dose ratio is defined as EC50 (pressence of antagonist)/EC50 (absence of antagonist) and EC50 refers to the concentration of LTD4 eliciting 50% of the maximum response to LTD4 (12).

5-lipoxygenase = 5-lipoxygenase activity in vitro (leukotriene B4 and 5-HETE production in A23187-stimulated rat peritoneal cells); type: cell-based; conditions: 10^-6 M
Description: (§1) The following method was used to assay 5-lipoxygenase activity in vitro: Rat peritoneal cells were harvested by i.p. injection of 10 ml Hank's balanced salt solution (GIBCO, cat. No. 4025, U.S.A.) containing 12.5 U/ml sodium heparin (Leo, Denmark) in anaesthesized rats. The resulting cell suspension, which mainly contained macrophages, was transferred to a test tube and washed twice by centrifugation (200 g, 10 min.) and resuspended in Hank's balanced salt solution containing 0.5% bovine serum albumin (BSA) (Sigma Chem. Co., U.S.A.). The cells from 9 rats were finally resuspended in Hank's balanced salt solution (with BSA) containing 5 μCi [1-^14 C]arachidonic acid (The Radiochemical Centre, Amersham, U.K.) and incubated for 90 minutes at 37° C. This caused labelling of cell membrane phospholipids as radioactive arachidonic acid was incorporated in the 2-position of the glycerol moiety. Excess arachidonic acid was then removed by washing the cells twice as described above. The cells were finally resuspended in the same solution (without BSA) at 10^7 cells/ml. 475 μl of the cell suspension was preincubated at 37° C. for 5 minutes with either 5 μl dimethylsulphoxide (DMSO) (control tube), or 5 μl of a drug solution in DMSO. Then 20 μl of a mixture of equal volumes of the calcium ionophore A23187, 10^-4 M in ethanol (Calbiochem, U.S.A.), and 0.4M CaCl2 in water was added. The final concentration of A23187 was thus 2×10^-6 M, and of Ca^++ 8 mM. After 5 minutes of incubation the tubes were transferred to an ice-bath and centrifuged for 10 minutes at 3,000 g (4° C.). An aliquot of the supernatant was counted by liquid scintillation spectrometry in order to calculate the total radioactive release induced by A23187 in presence of drugs. A decrease in radioactive release was taken as indication of phospholipase A2 inhibition. The supernatant was then extracted with ethyl acetate (2 ml), adjusted to pH 3 with 1N HCl and further extracted with 2 ml ethyl acetate. The combined extracts were evaporated to dryness in vacuo, the residue was redissolved in a small volume of methanol and applied by means of a Desaga Autospotter™ to a silica-gel coated thin-layer plate fitted with a polar concentrating zone (Merck Art. 11798, Darmstadt, F.R.G.). The plates were developed in the organic layer of the solvent mixture ethyl acetate/acetic acid/iso-octane/water (55:10:25:50). Radioactive spots were detected by autoradiography (AGFA-GEVAERT, Osray-RPI X-ray film, Belgium), and changes induced by drugs in the metabolic pattern of arachidonic acid were quantified by a laser densitometer (LKB, Ultroscan™ 2202, Bromma, Sweden) in combination with an integrating computer (SP 4100, Spectra-Physics, San Jose, Calif., U.S.A.).
(§2) These cells produced measurable amounts of radioactive 6-keto-prostaglandinF1α, thromboxane B2, prostaglandin D2, hydroxyheptadecatrienoic acid (HHT) (all cyclooxygenase products), 5-hydroxyeicosatetraenoic acid (5-HETE) and leukotriene B4 (both 5-lipoxygenase products).
(§3) At the same time, a decrease in synthesis of the cyclooxygenase products HHT, prostaglandin D2, thromboxane B2 and 6-keto-prostaglandin F1α was not observed. This pattern of drug activity is indicative of truly specific 5-lipoxygenase inhibition.

cyclooxygenase = test: synthesis of cyclooxygenase products in A23187-stimulated rat peritoneal cells; type: cell-based; conditions: 10^-6 M
Description: as §1, §2, §3

[2] = Pharmacological Data, IC50 (test not stated); conditions: Pharmacological Data table

Structure (SMILES)	IC50 (LTD4 receptor)	Kb [1]	pKB value [1]	decrease in the production of leukotriene B4 and 5-HETE (5-lipoxygenase)	decrease in synthesis of the cyclooxygenase products HHT, prostaglandin D2, thromboxane B2 and 6-keto-prostaglandin F1α (cyclooxygenase)	IC50 [2]
O=C(O)COc1cccc(CNc2cccc(OCc3ccc4ccccc4n3)c2)c1 [Example 1, 3-(2'-Quinolylmethoxy)-N-(3"-carboxymethoxybenzyl)aniline]	0.0501 µM	0.00501 µM	8.3	–	–	–
O=C(O)c1ccccc1NCc1cccc(OCc2ccc3ccccc3n2)c1 [Example 2]	–	–	–	significant and specific decrease	not observed	–
O=C(O)Cc1ccc(NCc2cccc(OCc3ccc4ccccc4n3)c2)cc1 [Example 8]	–	–	–	significant and specific decrease	not observed	–
O=C(O)COc1ccccc1CNc1cccc(OCc2ccc3ccccc3n2)c1 [Example 9, 3-(2'-quinolylmethoxy)-N-(2"-carboxymethoxybenzyl)aniline]	0.00794 µM	0.000316 µM	9.5	significant and specific decrease	not observed	0.016 µM
O=C(O)COc1ccc(CNc2cccc(OCc3ccc4ccccc4n3)c2)cc1 [Example 10, 3-(2'-quinolylmethoxy)-N-(4"-carboxymethoxybenzyl)aniline]	0.0316 µM	0.00398 µM	8.4	–	–	–
O=C(O)CCOc1ccccc1CNc1cccc(OCc2ccc3ccccc3n2)c1 [Example 11]	–	–	–	significant and specific decrease	not observed	–
CC(Oc1ccc(CNc2cccc(OCc3ccc4ccccc4n3)c2)cc1)C(=O)O (stereo not shown) [Example 12, 3-(2'-quinolylmethoxy)-N-(4"-(1-carboxyethoxy)benzyl)aniline]	–	–	–	significant and specific decrease	not observed	–
CC(Oc1ccccc1CNc1ccc(OCc2ccc3ccccc3n2)cc1)C(=O)O (stereo not shown) [Example 13]	–	–	–	significant and specific decrease	not observed	–
O=C(O)CCCOc1ccccc1CNc1cccc(OCc2ccc3ccccc3n2)c1 [Example 14, 3-(2'-quinolylmethoxy)-N-(2"-carboxy-(3-propyloxy)benzyl)aniline]	–	–	–	significant and specific decrease	not observed	–
O=C(O)CCCOc1ccc(CNc2cccc(OCc3ccc4ccccc4n3)c2)cc1 [Example 16]	–	–	–	significant and specific decrease	not observed	–
O=C(NO)c1ccc(CN(Cc2cccc(F)c2)c2cccc(OCc3ccc4ccccc4n3)c2)cc1 [Example 20, 3(2'-Quinolylmethoxy)-N-(3"-fluorobenzyl)-N-(4'"-hydroxaminocarbonylbenzyl)aniline]	–	–	–	significant and specific decrease	not observed	–
O=C(NO)c1ccccc1Nc1cccc(OCc2ccc3ccccc3n2)c1 [Example 21, 3-(2'-Quinolylmethoxy)-N-(2"-hydroxaminocarbonylphenyl)-aniline]	–	–	–	significant and specific decrease	not observed	–
O=C(O)COc1ccccc1CNc1ccc(OCc2ccc3ccccc3n2)cc1 [Example 22, 4-(2'-Quinolylmethoxy)-N-(2"-carboxymethoxybenzyl)-aniline]	–	–	–	significant and specific decrease	not observed	–
c1ccc(CNc2ccc(OCc3ccc4ccccc4n3)cc2)cc1 [example 38]	–	–	–	–	–	0.9 µM
c1ccc(CNc2cccc(OCc3ccc4ccccc4n3)c2)cc1 [example 39, reference compound]	–	0.126 µM	–	–	–	0.03 µM
c1ccc(CNc2ccccc2OCc2ccc3ccccc3n2)cc1 [example 67]	–	–	–	–	–	> 10 µM
O=C(O)CN(Cc1ccccc1)c1cccc(OCc2ccc3ccccc3n2)c1 [ref. I]	–	–	–	–	–	0.04 µM
